Assay results from the NIST ThermoML archive (doi:10.1016/j.jct.2008.10.002).

Tests used:
[1] = molar heat capacity at constant pressure; xn = mol fraction of the nth substance listed; details: 101.3 kPa, Liquid, Small sample (50 mg) DSC
[2] = excess molar enthalpy (molar enthalpy of mixing); xn = mol fraction of the nth substance listed; details: 303.15 K, 101.3 kPa, Liquid

CCn1cc[n+](C)c1.O=S(=O)([O-])C(F)(F)F [1-ethyl-3-methylimidazolium trifluoromethanesulfonate] + O
molar heat capacity at constant pressure [J/K/mol], [1]
Details	293.15 K	298.15 K	303.15 K	308.15 K	313.15 K	318.15 K
x1 = 0.0186	–	83.1	83.2	83.1	83.2	83.4
x1 = 0.0522	–	94.3	94.6	94.7	95	95.4
x1 = 0.0995	–	108.6	109.2	109.6	110.1	110.6
x1 = 0.2037	–	138.9	139.9	140.7	141.5	142.4
x1 = 0.2952	163.5	164.5	165.6	166.6	167.7	168.8
x1 = 0.3868	188.5	189.7	190.9	192.1	193.3	194.6
x1 = 0.4761	213.2	214.5	215.8	217.1	218.5	220
x1 = 0.5771	240.9	242.3	243.8	245.3	246.9	248.5
x1 = 0.6617	264	265.6	267.3	269	270.8	272.6
x1 = 0.8398	314.4	316.3	318.2	320.2	322.1	324.2
x1 = 0.8646	321.6	323.5	325.5	327.5	329.6	331.7

[2]
Details	excess molar enthalpy [kcal/mol]
x1 = 0.1012	0.116
x1 = 0.1943	0.19
x1 = 0.2959	0.237
x1 = 0.4031	0.256
x1 = 0.4921	0.253
x1 = 0.5929	0.23
x1 = 0.6997	0.182
x1 = 0.7805	0.144
x1 = 0.844	0.107
